Measured values reported in ChEMBL document CHEMBL1201862, “PubChem BioAssay data set” (2004).
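Method: 48-hour compound exposure of cells in 96-well plates, five concentrations, linear interpolation of endpoints. GI50: concentration for 50% inhibition of growth.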 Active and inactive are the calls of the source. Rule as the data show it: active = GI50 up to about 1.1 µM and inactive = higher.

How the values were obtained:
Experiment in all cases: inhibition of tumour cell growth, NCI panel, 48 h
M14 = system: M14
NCI-H226 = system: NCI-H226
SF-295 = system: SF-295
A549 = system: A549
SK-MEL-5 = system: SK-MEL-5
786-0 = system: 786-0
OVCAR-3 = system: OVCAR-3
HOP-62 = system: HOP-62
SN12C = system: SN12C
HCT-116 = system: HCT-116
SF-268 = system: SF-268
PC-3 = system: PC-3
SK-OV-3 = system: SK-OV-3
SF-539 = system: SF-539
MCF7 = system: MCF7
A498 = system: A498
IGROV-1 = system: IGROV-1
MOLT-4 = system: MOLT-4
CCRF-CEM = system: CCRF-CEM

Row | Structure (SMILES) | GI50 (M14) | GI50 (NCI-H226) | GI50 (SF-295) | GI50 (A549) | GI50 (SK-MEL-5) | GI50 (786-0) | GI50 (OVCAR-3) | GI50 (HOP-62) | GI50 (SN12C) | GI50 (HCT-116) | GI50 (SF-268) | GI50 (PC-3) | GI50 (SK-OV-3) | GI50 (SF-539) | GI50 (MCF7) | GI50 (A498) | GI50 (IGROV-1) | GI50 (MOLT-4) | GI50 (CCRF-CEM)
1 | O=C(O)CCC(=O)c1ccc[nH]1 | > 100 µM (inactive) | 64 µM (inactive) | > 100 µM (inactive) | > 100 µM (inactive) | > 100 µM (inactive) | > 100 µM (inactive) | > 100 µM (inactive) | > 100 µM (inactive) | 6.56 µM (inactive) | > 100 µM (inactive) | > 100 µM (inactive) | > 100 µM (inactive) | > 100 µM (inactive) | > 100 µM (inactive) | > 100 µM (inactive) | > 100 µM (inactive) | > 100 µM (inactive) | > 100 µM (inactive) | 
2 | NS(=O)(=O)c1cc(C(=O)O)c(O)c2ccccc12 | > 100 µM (inactive) | > 100 µM (inactive) | > 100 µM (inactive) | > 100 µM (inactive) | > 100 µM (inactive) | > 100 µM (inactive) | > 100 µM (inactive) | > 100 µM (inactive) | > 100 µM (inactive) | > 100 µM (inactive) | > 100 µM (inactive) | > 100 µM (inactive) | > 100 µM (inactive) | > 100 µM (inactive) | > 100 µM (inactive) | > 100 µM (inactive) | > 100 µM (inactive) | > 100 µM (inactive) | > 100 µM (inactive)
3 | Cc1cc2nc3c(C#N)c4c(c(-c5ccc(Cl)cc5)n3c2cc1C)CCC4 | 17.5 µM (inactive) | 21.1 µM (inactive) | 17.2 µM (inactive) | 34.5 µM (inactive) | 19.6 µM (inactive) | 19.4 µM (inactive) | 20.3 µM (inactive) | 22.4 µM (inactive) | 30.3 µM (inactive) | 18.7 µM (inactive) | 24.3 µM (inactive) | 29.2 µM (inactive) | 18.2 µM (inactive) | 29.2 µM (inactive) | 33.1 µM (inactive) | 28.1 µM (inactive) | 18.4 µM (inactive) | 25.1 µM (inactive) | 24.2 µM (inactive)
4 | COc1cccc(C2c3cc4c(cc3OC(Nc3ccccc3)C2C)OCO4)c1OC (stereo not given) | 67.6 µM (inactive) | 1.84 µM (inactive) | 5.55 µM (inactive) | 6.04 µM (inactive) | 6.5 µM (inactive) | 10.6 µM (inactive) | 5.36 µM (inactive) | 15 µM (inactive) | 6.4 µM (inactive) | 3.52 µM (inactive) | 8.73 µM (inactive) | 4.47 µM (inactive) | 7.59 µM (inactive) | 13.2 µM (inactive) | 6.89 µM (inactive) | 11.5 µM (inactive) | 14.9 µM (inactive) | 1.81 µM (inactive) | 2.88 µM (inactive)
5 | COc1cc(-c2[o+]c3cc(O)cc(OC4OC(CO)C(O)C(O)C4O)c3cc2OC2OC(CO)C(O)C(O)C2O)cc(OC)c1O (stereo not given) | > 100 µM (inactive) | > 100 µM (inactive) | > 100 µM (inactive) | > 100 µM (inactive) | > 100 µM (inactive) | > 100 µM (inactive) | > 100 µM (inactive) | > 100 µM (inactive) | > 100 µM (inactive) | > 100 µM (inactive) | > 100 µM (inactive) | > 100 µM (inactive) | > 100 µM (inactive) | > 100 µM (inactive) | > 100 µM (inactive) | > 100 µM (inactive) | > 100 µM (inactive) | > 100 µM (inactive) | 70.1 µM (inactive)
6 | CN(C)c1ccc(/C=N/c2ccc(-c3nc4ccccc4s3)cc2)cc1 | 41.1 µM (inactive) | 32 µM (inactive) | 4.54 µM (inactive) | 39.7 µM (inactive) | 19.3 µM (inactive) | 20.2 µM (inactive) | 15.9 µM (inactive) | 24.5 µM (inactive) | 36.1 µM (inactive) | 33 µM (inactive) |  | 22.4 µM (inactive) | 36.8 µM (inactive) | 52.8 µM (inactive) | < 0.01 µM (active) | 10.2 µM (inactive) | 36.2 µM (inactive) | 23.2 µM (inactive) | 0.578 µM (active)
7 | O=C(c1ccc(-c2ccccc2)cc1)N(Cc1cccnc1)C(=S)N(Cc1cccnc1)C(=O)c1ccc(-c2ccccc2)cc1 | 81.3 µM (inactive) | 76.2 µM (inactive) | > 100 µM (inactive) | > 100 µM (inactive) | 56 µM (inactive) | > 100 µM (inactive) | > 100 µM (inactive) | > 100 µM (inactive) | > 100 µM (inactive) | 63.8 µM (inactive) | > 100 µM (inactive) | > 100 µM (inactive) | > 100 µM (inactive) | > 100 µM (inactive) | 41.6 µM (inactive) | > 100 µM (inactive) |  | 0.198 µM (active) | > 100 µM (inactive)
